Results on 2 molecules are retold here after US20020193425A1, “Cancer chemopreventative compounds and compositions and methods of treating cancers” (priority 2001, published 2002).

Series [1] has as its system DHL-6. Description: Cytotoxicity, viability by Trypan blue exclusion. To be noted: for Cytotoxicity (IC50, ng/ml): DHL-6, four days. Type of series: cell-based. From the text: All cells were routinely tested for mycoplasma contamination.
(§1) Cellular viability was monitored by Trypan blue exclusion.

The subject of another series is BV173. Description: Antiproliferative activity, [3H]thymidine incorporation. In kind it is cell-based. The note with it: four days. On the procedure:
as §1
(§2) ^bproliferation was assayed by [^3H]thymidine incorporation with quadruplicate samples, as described under “Materials and methods”.
On the technique in general: Incorporation of labelled thymidine or its analogues reports DNA synthesis.

Series [2] concerns DHL-6. The series is described as above. In kind it is cell-based. The note with it: four days. On the procedure: as §1, §2
For a further series, the system named is Daudi. The description is as above. Type of series: cell-based. To be noted: four days. Here is the method: as §1, §2
In series [3] the test system is HL-60. Described as above. Type of series: cell-based. The note with it: Homo sapiens, 96 h, four days, read-out: Antiproliferative Activity (IC50, ng/ml). On the procedure: as §1, §2
The subject of another series is K562. The series is described as above. In kind it is cell-based. The note with it: Homo sapiens, 96 h, four days, read-out: Antiproliferative Activity (IC50, ng/ml). On the procedure:
as §1, §2

In another series the test system is Kasumi-1. The description is as above. In kind it is cell-based. To be noted: Homo sapiens, 96 h, four days, read-out: Antiproliferative Activity (IC50, ng/ml). Here is the method:
as §1, §2

A further series has as its system NB4. The description is as above. Type of series: cell-based. To be noted: four days. On the procedure:
as §1, §2

The subject of series [4] is Peripheral Human Lymphocytes. Described as above. In kind it is cell-based. To be noted: Lymphocyte, 72 h, three days, concanavalin A (0.4 μg/ml), read-out: Antiproliferative Activity (IC50, ng/ml). Here is the method: as §1, §2
The next series has as its system RS4;11. The series is described as above. The note with it: Homo sapiens, 96 h, four days, read-out: Antiproliferative Activity (IC50, ng/ml). Type of series: cell-based. On the procedure: as §1, §2
The subject of a further series is Reh. The series is described as above. Type of series: cell-based. The note with it: Homo sapiens, 96 h, four days, read-out: Antiproliferative Activity (IC50, ng/ml). Here is the method:
as §1, §2

In a further series the test system is SUPB13. The description is as above. Type of series: cell-based. The note with it: 96 h, four days, read-out: Antiproliferative Activity (IC50, ng/ml). Here is the method:
as §1, §2

For the next series, the system named is U937. Described as above. In kind it is cell-based. The note with it: four days. On the procedure: as §1, §2
Series [5] has as its system HL-60 (human promyelocytic) cells. Description: HL-60 cell proliferation assay of quassinoids, [3H]thymidine incorporation. In kind it is cell-based. The note with it: for IC50: Homo sapiens, 4-day incubation, [3H]thymidine incorporation, read-out: inhibition of proliferation (IC50); for selectivity index: ratio of cytotoxic IC50 over antiproliferative IC50. Here is the method:
(§3) Induction of differentiation was determined by the ability of treated cells to produce superoxide anions (nitroblue tetrazolium (NBT)-reduction), a functional marker of mature macrophages or granulocytes. Proliferation capacity is equivalent to cell growth and was measured by incorporation of [3H]thymidine into DNA over a period of 18 h, and cytotoxic activity was evaluated by the loss of membrane integrity as shown by trypan blue exclusion. […] Although members of the brusatol and glaucarubolone series were active, when comparing members of both series that varied only in the positioning of the epoxymethano bridge, great differences were noted, as shown with yadianzolide C (5) and glaucarubolone (24), and analogues 4 (brusatol series) and 32 (glaucarubolone series).
(§4) HL-60 (human promyelocytic) cells were tested using a 4-day incubation protocol. In brief, cells in log phase (approximately 10^6 cells/mL) were diluted to […] and preincubated overnight (18 h) in 24-well plates to allow cell-growth recovery. Then, samples dissolved in DMSO were added, keeping the final DMSO concentration at 0.1% (v/v). Control cultures were treated with the same concentration of DMSO. After 4 days of incubation, the cells were analyzed to determine the percentage of cells undergoing maturation as determined by NBT reduction. Concomitantly, the effect on viability and proliferation of HL-60 cells was determined. In each experiment, 1α, 25-dihydroxyvitamin D3 (EC50=0.01 μM) and brusatol (EC50=0.07 μM) were used as reference controls. EC50 and IC50 values were calculated using 5-7 test concentrations (in duplicate), and consistent results were obtained, indicating the data reported for the related quassinoids are reliable.
(3) Cell Proliferation Assay. […] Cells were then collected on glass fiber filters (90×120 mm; Wallac, Turku, Finland) using a TOMTEC Harvester 96®.

For series [6] the test system is unchanged. Description: HL-60 cell differentiation of quassinoids, NBT reduction. In kind it is cell-based. The note with it: Homo sapiens, HL-60, 96 h, read-out: induction of differentiation (EC50, μM). Here is the method: as §3, §4
(1) Nitroblue Tetrazolium (NBT) Reduction. Evaluation of NBT reduction was used to assess the ability of sample-treated HL-60 cells to produce superoxide when challenged with 12-O-tetradecanoylphorbol 13-acetate (TPA). A 1:1 v/v) mixture of a cell suspension (10^6 cells) and TPA/NBT solution (2 mg/mL NBT and 1 μg/mL TPA in phosphate buffered solution) was incubated for 1 h at 37° C. Positive cells reduce NBT yielding intracellular black-blue formazan deposits, which were quantified by microscopic examination of >200 cells. Results were expressed as a percentage of positive cells.

Series [7] can be described thus: HL-60 cytotoxicity of quassinoids, trypan blue exclusion. In kind it is cell-based, human. To be noted: human. Here is the method: as §3, §4
(2) Cytotoxicity. Since loss of membrane integrity is an early feature of necrotic cells and a late feature of apoptotic cells, trypan blue, a […] blue dye, was used to stain cells with compromised plasma membranes, while leaving intact cells unstained. Cells […] of trypan blue (0.2% w/v in PBS), incubated for at least 5 min at room temperature, and counted using a hematocytometer. Viability percentages were calculated with duplicate samples.

Series [8] relates to HL-60. Kind of series: NBT-reduction differentiation assay, leukemic panel. To be noted: 4 days. In kind it is cell-based, human. On the procedure: Cell lines were tested using a 4-day incubation protocol, unless otherwise specified.
2) NBT/NSE/SE. Evaluation of NBT reduction was used to assess the ability of sample-treated cells to produce superoxide when challenged with TPA. A 1:1 (v/v) mixture of a cell suspension (10^6 cells) and TPA/NBT solution (2 mg/ml NBT and 1 μg/ml TPA in phosphate buffer saline (PBS)) was incubated for 1 h at 37° C. Then, cells were smeared on glass slides, and counterstained with 0.3% (w/v) safranin O in methanol. Positive cells reduce NBT yielding intracellular black-blue formazan deposits. NSE/SE are monocytic/granulocytic esterases that can be visualized by cytochemical staining using commercially available kits (α-Naphthyl Acetate Esterase and Naphthol As-D Chloroacetate Esterase kits, Sigma Chemical Co., St. Louis, Mo.). Positive-stained cells were quantified by microscopic examination of >200 cells. Results were expressed as a percentage of positive cells.
Concentration-dependent effect of brusatol on: (a) NBT-reduction (monocyte/granulocyte marker) of HL-60, K562, NB4, U937, and BV173 and (b) NSE expression (monocyte marker) in K562, Kasumi-1, NB4, and BV173 cells, respectively. Data points are the mean of duplicate samples.

In another series the test system is JB6 cells. To be noted: dose-dependent manner; cited from earlier work.

Each structure is given as a SMILES string. ≈ marks a conversion by molar mass, not a printed value. Where two headings read alike, the source gives them in different places.

In general, EC50 refers to the concentration giving half of the maximal effect. On to `COC(=O)[C@@]12OC[C@]34[C@H]([C@@H](O)[C@@H]1O)[C@@]1(C)CC(=O)C(O)=C(C)[C@@H]1C[C@H]3OC(=O)[C@H](OC(=O)C=C(C)C)[C@@H]24` [compound 1, brusatol], for which the “Cytotoxicity (IC50, ng/ml)” value in the series with DHL-6 [1] (listed as Brusatol) is 5 ± 0.5 ng/mL; with DHL-6 [1] (listed as brusatol), “less than 25 ng/ml”. This molecule registered a cytotoxicity in the series on DHL-6 [1] (human, 48 h, 25 ng/ml) of 100%. In addition, the “Antiproliferative Activity (IC50, ng/ml)” value in the series on BV173, in the series with DHL-6 [2], with Daudi, in the series with NB4 and with U937 was “No effect” throughout. Moreover, the IC50 was found to be 25 ± 0.5 ng/mL (≈ 0.048 µM) with HL-60 [3]; 10 ± 0.2 ng/mL (≈ 0.0192 µM) with K562; 7 ± 0.6 ng/mL (≈ 0.0134 µM) in the series with Kasumi-1; 7.5 ± 0.3 ng/mL (≈ 0.0144 µM) in series [4]; 12.5 ± 0.6 ng/mL (≈ 0.024 µM) in the series on RS4;11; 37 ± 5.6 ng/mL (≈ 0.0711 µM) with Reh. Besides, the results for the IC50 (in the series with SUPB13; in series [5]) were 37 ± 1.9 ng/mL (≈ 0.0711 µM) and 70 ± 7 nM, respectively. Further, the selectivity index in [5] was determined as 2.5 ± 0.3. For the same molecule, the EC50 in [6] came to 0.07 µM. Also, in [7] (HL-60 cells, HL-60, 4-day incubation, trypan blue exclusion, read-out: cytotoxicity (IC50)), the IC50 at 4 days came out at 170 ± 1 nM. In addition, the “NBT-reduction, peak induction” value in the series on HL-60 [8] is recorded as 75%. Moreover, the “TPA-induced anchorage-independent growth of JB6 cells” value with JB6 cells was “inhibits”.
For `COC(=O)[C@@]12OC[C@]34[C@H]([C@@H](O)[C@@H]1O)[C@@]1(C)CC(=O)C(O)=C(C)[C@@H]1C[C@H]3OC(=O)[C@H](OC(=O)/C=C(\C)C(C)C)[C@@H]24` [compound 2, bruceantin], the “Antiproliferative Activity (IC50, ng/ml)” value with BV173, in the series on DHL-6 [2], in the series on Daudi, in the series with NB4 and in the series with U937 was “No effect” throughout. In addition, the IC50 was 20 ± 0.1 ng/mL (≈ 0.0365 µM) in the series with HL-60 [3]; 6 ± 0.1 ng/mL (≈ 0.0109 µM) in the series with K562; 3.2 ± 0.1 ng/mL (≈ 0.00583 µM) in the series on Kasumi-1; 3 ± 0.3 ng/mL (≈ 0.00547 µM) in series [4]; 5.4 ± 0.9 ng/mL (≈ 0.00984 µM) with RS4;11; 12.5 ± 0.8 ng/mL (≈ 0.0228 µM) with Reh. Moreover, the figures for the IC50 (with SUPB13; in series [5]) were 10 ± 0.5 ng/mL (≈ 0.0182 µM) and 40 ± 3 nM, respectively. The selectivity index in series [5] is listed as 1.0 ± 0.2. The EC50 in series [6] amounted to 0.02 ± 0.002 µM. The same molecule had an IC50 at 4 days in series [7] of 40 ± 3 nM.
